Experimental data from publication PMC12380353, “MK-8527 is a novel inhibitor of HIV-1 reverse transcriptase translocation with potential for extended-duration dosing” (PLOS Biology, 2025).
“And” between values parts separate entries of the source, which are not always exact repeats. Equal entries are not always repeated. Where two headings read alike, the source gives them in different places.

Key:
[1] = target: human DNA polymerases α and β and human mitochondrial DNA polymerase γ; assay: Human DNA polymerase inhibition assays (summary for α, β, γ); type: biochemical; settings: read-out: IC50 values against human DNA polymerases tested
Description: The activities of human DNA polymerases α, β, and γ were measured in radiolabeled nucleotide incorporation assays. TP was prepared as a 10-point titration with 3-fold serial dilution in water. Reaction buffers for the DNA polymerase α and β assays both contained 20 mM Tris pH 7.5, 10 mM MgCl2, 50 μM EDTA, 200 μg/mL bovine serum albumin (BSA), 2 mM dithiothreitol (DTT), 1.6 μM each of dNTP (dATP, dCTP, dGTP, and dTTP), 20 μCi/mL [α33P]dATP, 0.1 mg/mL gapped activated fish sperm DNA template, test compound, and 0.005 U/μL DNA polymerase α or 0.0025 U/μL DNA polymerase β. The reaction buffer for DNA polymerase γ contained 20 mM Tris pH 8, 10 mM MgCl2, 50 mM KCl, 100 μg/mL BSA, 2 mM β-mercaptoethanol, 10 μM of each dNTP (dATP, dCTP, dGTP, and dTTP), 20 μCi/mL [α33P]dATP, 0.04 mg/mL gapped activated fish sperm DNA template, test compound, and 0.0003 μg/μL DNA polymerase γ. The 50-μL reactions were incubated at room temperature for 30 min (for β and γ) or 90 min (for α) before terminating with the addition of 50 μL 500 mM EDTA. The reaction mixtures were transferred to a Millipore DE81 filter plate (EMD Millipore; Hayward, CA), washed with 0.5 M sodium phosphate pH 7.0, and dried. After addition of 40 μL scintillant to each well, the incorporation of labeled dATP was determined with a microplate counter (TopCount NXT HTS; PerkinElmer, Shelton, CA, USA).

HIV-1 RT = target: T1, HIV-1 RT (Human immunodeficiency virus type 1 group M subtype B, UniProt P04585); assay: HIV-1 RT biochemical (ECL) assay; settings: purified recombinant RT, n = 8; read-out: IC50, RNA-dependent DNA polymerization
T1 construct: Full-length WT RT protein was expressed in Escherichia coli BL21(DE3) cells; made in house; host or cells: Escherichia coli BL21(DE3)
Description: Full-length WT RT protein was expressed in Escherichia coli BL21(DE3) cells and purified as described previously. The electrochemiluminescence (ECL) RT biochemical assay was performed based on the previously described protocol.
Briefly, the heterodimeric nucleic acid substrate used in the HIV-1 RT polymerase reactions was generated by annealing biotinylated DNA primer to a 500-nucleotide RNA template. The HIV-1 RT enzyme (final concentration of 50 pM) was combined with an inhibitor or DMSO (10% DMSO in the final reaction mixture) in assay buffer containing 62.5 mM Tris-HCl, pH 7.8, 1.25 mM dithiothreitol, 7.5 mM MgCl2, 100 mM KCl, 0.03% 3-[(3-cholamidopropyl)-dimethylammonio]-1-propanesulfonate, and 0.125 mM ethylene glycol tetraacetic acid). This mixture was preincubated for 30 min at room temperature in microtiter plates. The polymerization reaction was initiated by the addition of template:primer substrate (final concentration, 16.6 nM), and dNTPs (final concentrations were 2 μM for deoxycytidine triphosphate [dCTP], deoxyguanosine triphosphate [dGTP], and dATP and 66.6 nM for ruthenylated deoxyuridine triphosphate [Ru-dUTP]). […] The mixtures were incubated at room temperature for 60 min prior to the quantification of the reaction product via an ECL 6000 imager instrument. […]

HIV-1 subtypes = settings: for Fold-Change in IC50 vs CNDO control virus: listed as MK-8527
Description: Compounds were evaluated for antiviral activity against a panel of clinical isolates representing multiple HIV-1 subtypes at Monogram Biosciences (South San Francisco, CA, USA). The isolates were selected based on an absence of resistance-associated mutations in RT and each was constructed as a pooled resistance test vector designed to preserve the quasispecies present in the initial clinical isolate.

HIV-1IIIB = assay: Cytoprotection assay in CEM-SS cells, HIV-1; type: cell-based; settings: Human immunodeficiency virus 1, 144 h, 6 days, read-out: Antiviral potency as IC50, HIV-1 – CEM-SS cells
Description: The antiviral activity of MK-8527 against HIV-1 and HIV-2 was determined in a cytoprotection assay in CEM-SS cells at ImQuest BioSciences (Fredrick, MD, USA). Briefly, CEM-SS cells (National Institute of Health AIDS Research and Reference Reagent Program) were passaged in RPMI 1640 supplemented with 10% heat-inactivated FBS, 2 mM L-glutamine, 100 U/mL penicillin and 100 µg/mL streptomycin prior to use in the antiviral assay. On the day preceding the assay, the cells were split 1:2 to ensure they were in an exponential growth phase at the time of infection. The cells were resuspended at 2.5 × 10^3 cells per well in cell culture medium and added to the drug-containing microtiter plates at 50 µL per well. MK-8527 was tested in triplicate for each experiment, with 12 test concentrations added at 100 µL per well.
Lymphocyte-tropic virus strains HIV-1IIIB or HIV-2ROD (NIH AIDS Research and Reference Reagent Program) were diluted into tissue culture medium such that the amount of virus added to each well in a volume of […] corresponded to the amount determined to yield 85% to 95% cell killing in the untreated virus control wells at 6–7 days. Virus was added immediately after cells were added to the 96-well microtiter plates.
The IC50 for MK-8527 antiviral activity was determined using 4-parameter curve fit calculations.

Compound | IC50 [1] | IC50 (HIV-1 RT) | Geometric Mean fold-change (HIV-1 subtypes; WT Subtype A) | Geometric Mean fold-change (HIV-1 subtypes; WT Subtype A1) | Fold-Change in IC50 vs CNDO control virus (HIV-1 subtypes; WT Subtype A1 clinical isolates) | Geometric Mean fold-change (HIV-1 subtypes; WT Subtype AE) | Geometric Mean fold-change (HIV-1 subtypes; WT Subtype AG) | Geometric Mean fold-change (HIV-1 subtypes; WT Subtype B) | Geometric Mean fold-change (HIV-1 subtypes; WT Subtype BF) | Geometric Mean fold-change (HIV-1 subtypes; WT Subtype C) | Geometric Mean fold-change (HIV-1 subtypes; WT Subtype D) | Geometric Mean fold-change (HIV-1 subtypes; WT Subtype F1) | Geometric Mean fold-change (HIV-1 subtypes; WT Subtype G) | Geometric Mean fold-change (HIV-1 subtypes; WT Subtype H) | Fold-Change in IC50 vs CNDO control virus (HIV-1 subtypes; WT Subtype H clinical isolates) | IC50 (HIV-1IIIB)
C#C[C@]1(COP(=O)(O)OP(=O)(O)OP(=O)(O)O)O[C@@H](n2ccc3c(N)nc(Cl)nc32)C[C@@H]1O [MK-8527-TP] | ≥ 95 µM | 0.813 ± 0.238 µM |  |  |  |  |  |  |  |  |  |  |  |  |  | 
C#C[C@]1(CO)O[C@@H](n2ccc3c(N)nc(Cl)nc32)C[C@@H]1O [Compound 12, (2R,3S,5R)-5-(4-amino-2-chloro-7H-pyrrolo[2,3-d]pyrimidin-7-yl)-2-ethynyl-2-(hydroxymethyl)tetrahydrofuran-3-ol] |  |  | 1.0 | 0.9 | 0.96 and 0.93 and 0.73 | 0.6 | 1.0 | 0.9 | 0.8 | 1.0 | 0.7 | 0.8 | 0.752 | 0.55 | 0.72 and 0.42 | 0.00014 µM
